Format in all cases: cell-based
In assay [1] the test system is A431 (epidermoid carcinoma). Briefly: Antiproliferative activity (CCK-8 cell viability), A431. The following applies: Homo sapiens, 72 h; for inhibition at 3.3 µM: A-431, Compound concentration: 3.3 μM; for inhibition at 10 µM: A-431, Compound concentration: 10 μM; for inhibition at 30 µM: A-431, Compound concentration: 30 μM. The gist of the method: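 This growth inhibition assay used A431 cells maintained in Dulbecco's modified Eagle's medium plus 10% fetal bovine serum. Cells were seeded in 96-well plates, treated with compound for 72 h at 37° C., and then given 10 μL CCK-8 solution. After a further 4 h, absorbance was read at 450 nm.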

Assay [2] has as its system MDA-MB-231 (breast cancer). In words: Antiproliferative activity (CCK-8 cell viability), MDA-MB-231. Particulars: Homo sapiens, 72 h; for inhibition at 3.3 µM: Compound concentration: 3.3 μM; for inhibition at 10 µM: Compound concentration: 10 μM; for inhibition at 30 µM: Compound concentration: 30 μM. The gist of the method: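 Growth inhibition of human MDA-MB-231 breast cancer cells was assessed with a Cell Counting Kit-8. Cells cultured in DMEM plus 10% FBS were seeded at 2,000-5,000 cells/well, treated after attachment, and kept 72 h at 37° C. CCK-8 solution (10 μL) was added for 4 h, and absorbance at 450 nm was compared with DMSO-treated controls.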

Another assay relates to HepG2 (liver cancer). In words: Antiproliferative activity (CCK-8 cell viability), HepG2. The following applies: Homo sapiens, 72 h; for inhibition at 3.3 µM: Compound concentration: 3.3 μM; for inhibition at 10 µM: Compound concentration: 10 μM; for inhibition at 30 µM: Compound concentration: 30 μM. An outline of the steps:
(§1)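 Growth inhibition graded in bands from percent viability against DMSO vehicle, read as CCK-8 absorbance at 450 nm. Compound tested at 3.3, 10 or 30 μM for 72 h, 37 °C; media contained 10% FBS: DMEM for HepG2/SW480, MEM for HeLa, F-12K for A549.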

The subject of the next assay is SW480 (colon cancer). Briefly: Antiproliferative activity (CCK-8 cell viability), SW480. Particulars: Homo sapiens, 72 h; for inhibition at 3.3 µM: Compound concentration: 3.3 μM; for inhibition at 10 µM: Compound concentration: 10 μM; for inhibition at 30 µM: Compound concentration: 30 μM. An outline of the steps: as §1
In the next assay the test system is HeLa (cervical cancer). In words: Antiproliferative activity (CCK-8 cell viability), HeLa. Particulars: Homo sapiens, 72 h; for inhibition at 3.3 µM: Compound concentration: 3.3 μM; for inhibition at 10 µM: Compound concentration: 10 μM; for inhibition at 30 µM: Compound concentration: 30 μM. The gist of the method:
as §1

Assay [3] concerns B16F10 (malignant melanoma). In words: Antiproliferative activity (CCK-8 cell viability), B16F10. Particulars: Mus musculus, 72 h; for inhibition at 3.3 µM: B16-F10, Compound concentration: 3.3 μM; for inhibition at 10 µM: B16-F10, Compound concentration: 10 μM; for inhibition at 30 µM: B16-F10, Compound concentration: 30 μM. An outline of the steps: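 Cell growth inhibition was measured in B16F10 malignant melanoma cells with a Cell Counting Kit-8 viability assay. Cells were maintained in DMEM plus 10% fetal bovine serum, seeded at 2,000-5,000 cells/well in 96-well plates, and treated for 72 h at 37° C. Viability was expressed relative to DMSO-treated vehicle control wells.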

Assay [4] concerns A549 (lung adenocarcinoma). In words: Antiproliferative activity (CCK-8 cell viability), A549. The following applies: Homo sapiens, 72 h; for inhibition at 3.3 µM: Compound concentration: 3.3 μM; for inhibition at 10 µM: Compound concentration: 10 μM; for inhibition at 30 µM: Compound concentration: 30 μM. The gist of the method:
as §1

Assay [5] relates to alpha-smooth muscle actin (α-SMA). Briefly: Inhibition of TGF-β induced expression of alpha-smooth muscle actin (α-SMA) in CFSC cells (western blot). The following applies: compound at 10 μM, TGF-β (10 ng/mL), 24 hours, band intensity vs TGF-β only. The gist of the method:
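Values are percent reduction of α-SMA band intensity relative to cells given TGF-β alone, quantified by Western blot densitometry with β-actin probed. Compound was applied at 10 μM alongside 10 ng/mL TGF-β to serum-free CFSC cultures for 24 h at 37 °C.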

[6] abbreviates: read-out: Antiproliferative activity in cancerous cells, A431 (inhibition of cell growth).
[7] abbreviates: read-out: Antiproliferative activity in cancerous cells, MDA-MB-231 (inhibition of cell growth).
Setting [8] is: read-out: Antiproliferative activity in cancerous cells, HepG2 (inhibition of cell growth).
The mark [9] stands for this setting: read-out: Antiproliferative activity in cancerous cells, SW480 (inhibition of cell growth).
Where [10] appears, read: read-out: Antiproliferative activity in cancerous cells, HELA (inhibition of cell growth).
[11] abbreviates: read-out: Antiproliferative activity in cancerous cells, B16F10 (inhibition of cell growth).
Where [12] appears, read: read-out: Antiproliferative activity in cancerous cells, A549 (inhibition of cell growth).

Like-named read-outs stand apart in the source and are kept apart here.

As for `COc1ccc(Oc2ccc(/C=C3\C(C)=C(CC(=O)O)c4cc(F)ccc43)cn2)cc1` [E1, (E)-2-(5-Fluoro-1-((6-(4-methoxyphenoxy)pyridin-3-yl)methylene)-2-methyl-1H-inden-3-yl)acetic acid], the inhibition at 3.3 µM (in assay [1] (setting [6]); in assay [2] (setting [7]); with HepG2 (liver cancer) (setting [8]); in the assay on SW480 (colon cancer) (setting [9]); with HeLa (cervical cancer) (setting [10]); in assay [3] (setting [11])) was < 30% each time. In addition, in assay [4] (setting [12]), the inhibition at 3.3 µM was < 30%. The inhibition at 10 µM (in assay [1] (setting [6]); in assay [2] (setting [7]); in the assay with HepG2 (liver cancer) (setting [8]); in the assay with SW480 (colon cancer) (setting [9]); in the assay on HeLa (cervical cancer) (setting [10]); in assay [3] (setting [11])) was < 30% throughout. Further, the inhibition at 10 µM in assay [4] (setting [12]) was 30 to 50%; in assay [5] it was < 30%. In addition, the inhibition at 30 µM in assay [1] (setting [6]) was < 30%; in assay [2] (setting [7]) it was ≥ 50%; with HepG2 (liver cancer) (setting [8]), 30 to 50%; in the assay with SW480 (colon cancer) (setting [9]), 30 to 50%; in the assay on HeLa (cervical cancer) (setting [10]), 30 to 50%; in assay [3] (setting [11]) it was 30 to 50%. Moreover, the inhibition at 30 µM in assay [4] (setting [12]) is 30 to 50%.
As for `CC1=C(CC(=O)O)c2cc(C)ccc2/C1=C\c1cccc(Oc2ccccc2)c1` [C17, (Z)-2-(2,5-Dimethyl-1-(3-phenoxybenzylidene)-1H-inden-3-yl)acetic acid], the inhibition at 3.3 µM was 30 to 50% in assay [1] (setting [6]); 30 to 50% in assay [2] (setting [7]); 30 to 50% in the assay on HepG2 (liver cancer) (setting [8]); < 30% in the assay with SW480 (colon cancer) (setting [9]); < 30% in the assay with HeLa (cervical cancer) (setting [10]); < 30% in assay [3] (setting [11]). Besides, in assay [4] (setting [12]), the inhibition at 3.3 µM was < 30%. In addition, the inhibition at 10 µM in assay [1] (setting [6]) is ≥ 50%; in assay [2] (setting [7]), ≥ 50%; in the assay on HepG2 (liver cancer) (setting [8]), ≥ 50%; in the assay on SW480 (colon cancer) (setting [9]), < 30%; in the assay on HeLa (cervical cancer) (setting [10]), 30 to 50%; in assay [3] (setting [11]), < 30%. The inhibition at 10 µM in assay [4] (setting [12]) is ≥ 50%; in assay [5], > 80%.
As for `COc1ccc(Oc2ccc(/C=C3/C(C)=C(CC(=O)O)c4cc(F)ccc43)cn2)cc1` [C35, (Z)-2-(5-Fluoro-1-((6-(4-methoxyphenoxy)pyridin-3-yl)methylene)-2-methyl-1H-inden-3-yl)acetic acid], the inhibition at 3.3 µM (in assay [1] (setting [6]); in assay [2] (setting [7]); in the assay on HepG2 (liver cancer) (setting [8]); in the assay on SW480 (colon cancer) (setting [9]); in the assay with HeLa (cervical cancer) (setting [10]); in assay [3] (setting [11])) was < 30% each time. In assay [4] (setting [12]), the inhibition at 3.3 µM was ≥ 50%. In addition, the inhibition at 10 µM is < 30% in assay [1] (setting [6]); < 30% in assay [2] (setting [7]); < 30% in the assay on HepG2 (liver cancer) (setting [8]); 30 to 50% in the assay on SW480 (colon cancer) (setting [9]); < 30% in the assay on HeLa (cervical cancer) (setting [10]); < 30% in assay [3] (setting [11]). Also, the inhibition at 10 µM in assay [4] (setting [12]) is ≥ 50%; in assay [5], < 30%. Moreover, the inhibition at 30 µM is < 30% in assay [1] (read-out: Antiproliferative activity in cancerous cells, A431); 30 to 50% in assay [2] (read-out: Antiproliferative activity in cancerous cells, MDA-MB-231); < 30% in the assay with HepG2 (liver cancer) (read-out: Antiproliferative activity in cancerous cells, HepG2); < 30% with SW480 (colon cancer) (read-out: Antiproliferative activity in cancerous cells, SW480); < 30% with HeLa (cervical cancer) (read-out: Antiproliferative activity in cancerous cells, HELA); < 30% in assay [3] (read-out: Antiproliferative activity in cancerous cells, B16F10). For the same molecule, the inhibition at 30 µM in assay [4] (read-out: Antiproliferative activity in cancerous cells, A549) is 30 to 50%.
With `COc1ccc(/C=C2/C(C)=C(CC(=O)O)c3cc(F)ccc32)c(OCc2ccccc2)c1` [B29, (Z)-2-(1-(2-(Benzyloxy)-4-methoxybenzylidene)-5-fluoro-2-methyl-1H-inden-3-yl)acetic acid], the inhibition at 3.3 µM in assay [1] (setting [6]) was < 30%; in assay [2] (setting [7]), 30 to 50%; with HepG2 (liver cancer) (setting [8]) it was < 30%; in the assay on SW480 (colon cancer) (setting [9]), < 30%; with HeLa (cervical cancer) (setting [10]) it was < 30%; in assay [3] (setting [11]), < 30%. In addition, in assay [4] (setting [12]), the inhibition at 3.3 µM is < 30%. Further, the inhibition at 10 µM in assay [1] (setting [6]) was ≥ 50%; in assay [2] (setting [7]), 30 to 50%; in the assay on HepG2 (liver cancer) (setting [8]), ≥ 50%; with SW480 (colon cancer) (setting [9]), < 30%; in the assay with HeLa (cervical cancer) (setting [10]) it was ≥ 50%; in assay [3] (setting [11]) it was ≥ 50%. In addition, the inhibition at 10 µM in assay [4] (setting [12]) is < 30%; in assay [5], > 80%.
On to `CC1=C(CC(=O)O)c2cc(C)ccc2/C1=C\c1cccc(COc2ccccc2)c1` [B12, (Z)-2-(2,5-Dimethyl-1-(3-(phenoxymethyl)benzylidene)-1H-inden-3-yl)acetic acid], for which the inhibition at 3.3 µM in assay [1] (setting [6]) was ≥ 50%; in assay [2] (setting [7]), ≥ 50%; in the assay with HepG2 (liver cancer) (setting [8]), < 30%; in the assay with SW480 (colon cancer) (setting [9]), < 30%; in the assay with HeLa (cervical cancer) (setting [10]), < 30%; in assay [3] (setting [11]), < 30%. Besides, in assay [4] (setting [12]), the inhibition at 3.3 µM was in the range of 30 to 50%. The inhibition at 10 µM in assay [1] (setting [6]) is ≥ 50%; in assay [2] (setting [7]), ≥ 50%; with HepG2 (liver cancer) (setting [8]), ≥ 50%; in the assay with SW480 (colon cancer) (setting [9]), < 30%; in the assay with HeLa (cervical cancer) (setting [10]), ≥ 50%; in assay [3] (setting [11]) it was 30 to 50%. The results for the inhibition at 10 µM in assay [4] (setting [12]) and in assay [5] were ≥ 50% and > 80%, respectively.

These data come from patent publication US20260184663A1, “INDENE COMPOUNDS, PHARMACEUTICAL COMPOSITIONS THEREOF, AND THEIR THERAPEUTIC APPLICATIONS” (NucMito Pharmaceuticals co. Ltd., priority 2022, published 2026).
